Test results reported in patent US10738028B2, “Spiro three-membered ring, spiro five-membered ring peptide deformylase inhibitor and use thereof in antibacteria and anti-tumor” (priority 2016, dated 2020).
Like-named read-outs stand apart in the source and are kept apart here.

Columns and labels:
Assay type in all cases: cell-based
[1] = test system: Enterococcus faecalis (EFA); test: MIC, two-fold agar dilution (CLSI), clinical isolates
Procedure, shortened: (§1)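 Susceptibility was tested using CLSI two-fold agar dilution against the strains examined.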

[2] = test system: Enterococcus faecium (EFM); test: as above
Procedure, shortened: as §1

[3] = test system: Escherichia coli (including ESBLs, non-ESBLs); test: as above
Procedure, shortened: as §1

[4] = test system: Moraxella catarrhalis (BCA); test: as above
Procedure, shortened: as §1

[5] = test system: Streptococcus pneoumoniae (SPN); test: as above
Procedure, shortened: as §1

[6] = test system: methicillin-resistant Staphylococcus aureus (MRSA); test: as above
Procedure, shortened: as §1

[7] = test system: methicillin-resistant Staphylococcus epidermidis (MRSE); test: as above
Procedure, shortened: as §1

[8] = test system: methicillin-sensitive Staphylococcus aureus (MSSA); test: as above
Procedure, shortened: as §1

[9] = test system: methicillin-sensitive Staphylococcus epidermidis (MSSE); test: as above
Procedure, shortened: as §1

[10] = test system: HCT-116 colorectal cancer cell line; test: CCK-8 proliferation inhibition; conditions: Homo sapiens, 72 hours, CCK-8; for inhibition at 30 µM: HCT-116, 72 h, concentration of 30 μM
Procedure, shortened: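 HCT-116 cells, seeded at 2000 cells/well in McCoy's 5A with 10% newborn bovine serum, were cultured overnight at 37° C., 5% CO2, then exposed to compound dilutions in medium for 72 hours. Viability was read with 1:10 diluted CCK-8; controls received 1‰ DMSO.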

[11] = test system: A549 lung cancer cell line; test: CCK-8 proliferation inhibition; conditions: Homo sapiens
Procedure, shortened: (§2)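 Plating at 2000 cells/well, then incubation overnight at 37° C. Next, a range of compound concentrations for 72 hours (control 1‰ DMSO). Finally, medium decanted and CCK-8 diluted 1:10 added.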

[12] = test system: BEL-7402 liver cancer cell line; test: CCK-8 proliferation inhibition
Procedure, shortened: as §2

[13] = test system: MGC-803 gastric cancer cell line; test: CCK-8 proliferation inhibition; conditions: Homo sapiens
Procedure, shortened: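 Cells were seeded at 2000 cells/well and cultured overnight at 37° C, 5% CO2, then exposed for 72 hours to compounds diluted from DMSO stocks. Controls received 1‰ DMSO. CCK-8 (1:10 diluted) replaced the medium. MGC-803 and Jurkat were grown in 1640, PC3 in F12, and MCF-7 in DMEM high glucose, each with 10% newborn bovine serum.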

CCCC[C@H](CC(=O)NO)C(=O)N1CC2(CC2)C[C@H]1C(=O)Nc1cc(C(C)(C)C)on1 [Example 55]
59%: Inhibition of proliferation, Liver cancer BEL-7402 ([12]; concentration of 30 μM, 72 hours, 30 µM)
33%: inhibition at 30 µM ([13]; MGC-803, 72 h, concentration of 30 μM)
29.5 µM: IC50 ([13]; MGC-803, 72 hours)
2 µg/mL: Anti-bacterial activity (MIC), strain EFM 15-6 ([2]; clinical isolate EFM 15-6) | Anti-bacterial activity (MIC), strain BCA 14-6 ([4]; clinical isolate BCA 14-6)
12.1 µM: IC50 ([11]; A549, 72 hours)
> 32 µg/mL: Anti-bacterial activity (MIC), strain EFA 15-1 ([1]; clinical isolate EFA 15-1) | Anti-bacterial activity (MIC), strain EFA 15-2 ([1]; clinical isolate EFA 15-2) | Anti-bacterial activity (MIC), strain EFA 15-3 ([1]; clinical isolate EFA 15-3) | Anti-bacterial activity (MIC), strain EFA 15-4 ([1]; clinical isolate EFA 15-4) | Anti-bacterial activity (MIC), strain EFA 15-5 ([1]; clinical isolate EFA 15-5) | Anti-bacterial activity (MIC), strain EFA 15-6 ([1]; clinical isolate EFA 15-6) | Anti-bacterial activity (MIC), strain EFM 15-1 ([2]; clinical isolate EFM 15-1) | Anti-bacterial activity (MIC), strain EFM 15-2 ([2]; clinical isolate EFM 15-2) | Anti-bacterial activity (MIC), strain EFM 15-3 ([2]; clinical isolate EFM 15-3) | Anti-bacterial activity (MIC), strain EFM 15-4 ([2]; clinical isolate EFM 15-4) | Anti-bacterial activity (MIC), strain ECO+ 15-2 ([3]; clinical isolate ECO+ 15-2) | Anti-bacterial activity (MIC), strain ECO+ 15-3 ([3]; clinical isolate ECO+ 15-3) | Anti-bacterial activity (MIC), strain ECO− 15-1 ([3]; clinical isolate ECO− 15-1) | Anti-bacterial activity (MIC), strain ECO− 15-2 ([3]; clinical isolate ECO− 15-2) | Anti-bacterial activity (MIC), strain ECO− 15-3 ([3]; clinical isolate ECO− 15-3) | Anti-bacterial activity (MIC), strain ECO− 15-4 ([3]; clinical isolate ECO− 15-4) | Anti-bacterial activity (MIC), strain MSSA 15-6 ([8]; clinical isolate MSSA 15-6)
25.9 µM: IC50 ([12]; Homo sapiens, Bel-7402, 72 hours)
4 µg/mL: Anti-bacterial activity (MIC), strain BCA 14-1 ([4]; clinical isolate BCA 14-1) | Anti-bacterial activity (MIC), strain BCA 14-4 ([4]; clinical isolate BCA 14-4) | Anti-bacterial activity (MIC), strain BCA 14-7 ([4]; clinical isolate BCA 14-7) | Anti-bacterial activity (MIC), strain BCA 14-8 ([4]; clinical isolate BCA 14-8) | Anti-bacterial activity (MIC), strain BCA 14-10 ([4]; clinical isolate BCA 14-10)
49%: inhibition at 30 µM ([11]; A549, 72 h, concentration of 30 μM)
32 µg/mL: Anti-bacterial activity (MIC), strain ECO+ 15-1 ([3]; clinical isolate ECO+ 15-1)
8 µg/mL: Anti-bacterial activity (MIC), strain EFA 15-9 ([1]; clinical isolate EFA 15-9)
30%: inhibition at 30 µM ([10]; read-out: HCT116 inhibition rate/%)
> 50%: inhibition at 30 µM ([12]; Homo sapiens, Bel-7402, 72 h, concentration of 30 μM)
0.25 µg/mL: Anti-bacterial activity (MIC), strain MRSA 15-1 ([6]; clinical isolate MRSA 15-1)
≥ 30%: inhibition at 30 µM ([10]; Table 5, read-out: Inhibition of proliferation, Colorectal cancer HCT116)
0.5 µg/mL: Anti-bacterial activity (MIC), strain EFM 15-5 ([2]; clinical isolate EFM 15-5) | Anti-bacterial activity (MIC), strain MRSA 15-2 ([6]; clinical isolate MRSA 15-2) | Anti-bacterial activity (MIC), strain MRSA 15-3 ([6]; clinical isolate MRSA 15-3) | Anti-bacterial activity (MIC), strain MRSA 15-4 ([6]; clinical isolate MRSA 15-4) | Anti-bacterial activity (MIC), strain MSSA 15-3 ([8]; clinical isolate MSSA 15-3)
1 µg/mL: Anti-bacterial activity (MIC), strain ECO+ 15-4 ([3]; clinical isolate ECO+ 15-4) | Anti-bacterial activity (MIC), strain BCA 14-5 ([4]; clinical isolate BCA 14-5) | Anti-bacterial activity (MIC), strain SPN 16-2 ([5]; clinical isolate SPN 16-2) | Anti-bacterial activity (MIC), strain SPN 16-4 ([5]; clinical isolate SPN 16-4) | Anti-bacterial activity (MIC), strain MRSE 15-1 ([7]; clinical isolate MRSE 15-1) | Anti-bacterial activity (MIC), strain MRSE 15-2 ([7]; clinical isolate MRSE 15-2) | Anti-bacterial activity (MIC), strain MRSE 15-3 ([7]; clinical isolate MRSE 15-3) | Anti-bacterial activity (MIC), strain MRSE 15-7 ([7]; clinical isolate MRSE 15-7) | Anti-bacterial activity (MIC), strain MSSA 15-4 ([8]; clinical isolate MSSA 15-4) | Anti-bacterial activity (MIC), strain MSSA 15-5 ([8]; clinical isolate MSSA 15-5) | Anti-bacterial activity (MIC), strain MSSE 15-3 ([9]; clinical isolate MSSE 15-3) | Anti-bacterial activity (MIC), strain MSSE 15-4 ([9]; clinical isolate MSSE 15-4) | Anti-bacterial activity (MIC), strain MSSE 15-5 ([9]; clinical isolate MSSE 15-5) | Anti-bacterial activity (MIC), strain MSSE 15-6 ([9]; clinical isolate MSSE 15-6)
15.2 µM: IC50 ([10]; HCT-116)
